{
  "source": "PubChem BioAssay AID624333",
  "about": "(NMMLSC, 2012)",
  "note": "Activity calls are given as the source filed them.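 How the source made its calls: active means inhibition of binding above 0%; inactive means the rest.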",
  "data": [
    {"tested_on": "anti-Dsg3 scFv antibody binding to human desmoglein-3", "test": "inhibitors of pemphigus antibody-Dsg3 interaction – biochemical, ELISA, orthogonal assay for pemphigus antibody inhibitor project, confirmation (AID 624333)", "details": "OD, at 200 µM, active compounds read high", "values": [
      {"smiles": "CC(=O)Nc1ccc(-c2cc(-c3ccccc3)nc(-c3ccccc3)n2)cc1", "inhibition of binding": "5%"},
      {"smiles": "CC(C)OC(=O)CSc1nc2c(cc1C#N)CCCCC2", "inhibition of binding": "-2% (inactive)"},
      {"smiles": "COc1cc(OC)cc(N(C(=O)C2COc3ccccc3O2)C(C(=O)NC2CCCCC2)c2ccc(O)cc2)c1", "note": "(centres undefined)", "inhibition of binding": "-3% (inactive)"},
      {"smiles": "Cc1ccc(C(C)C)c(OCC(=O)Nc2ccc(N3CCN(S(C)(=O)=O)CC3)cc2)c1", "inhibition of binding": "-19% (inactive)"},
      {"smiles": "CSc1ccccc1OCc1cc(C(=O)NCCC2=CCCCC2)no1", "inhibition of binding": "-14% (inactive)"},
      {"smiles": "COc1ccccc1NC(=O)Cn1nnc(-c2ccccc2NC(=O)c2cc3ccccc3oc2=O)n1", "inhibition of binding": "-32% (inactive)"},
      {"smiles": "CCc1ccc(OCC(=O)Nc2ccc(N3CCN(C(=O)c4ccccc4)CC3)cc2)cc1", "inhibition of binding": "-5% (inactive)"},
      {"smiles": "Cc1cc(SCC(=O)Nc2ccc3[nH]c(=O)[nH]c3c2)nc2ccccc12", "inhibition of binding": "8%"},
      {"smiles": "Cn1c(SCC(=O)NC2CCCCC2)nnc1-c1cc2cc(Cl)ccc2o1", "inhibition of binding": "0% (inactive)"},
      {"smiles": "Cc1c(C(=O)Nc2ccc(OCc3ccccc3)cc2)cccc1[N+](=O)[O-]", "inhibition of binding": "-33% (inactive)"},
      {"smiles": "COc1ccc(OC)c(NC(=O)c2nc(-c3ccccc3)oc2C)c1", "inhibition of binding": "-2% (inactive)"},
      {"smiles": "OCc1cn(-c2ccccc2)nc1-c1ccc(-c2nn(-c3ccccc3)cc2CO)cc1", "inhibition of binding": "-14% (inactive)"},
      {"smiles": "NS(=O)(=O)c1ccc(NC(=O)c2cc(-c3cccs3)nc3ccccc23)cc1", "inhibition of binding": "-18% (inactive)"},
      {"smiles": "CCOc1ccccc1NCc1cc(=O)oc2cc(C)c(O)cc12", "inhibition of binding": "-4% (inactive)"}
    ]}
  ]
}
